Columns and labels:
human NTPDase2 = biological target: T1, human NTPDase2 (Homo sapiens, UniProt Q9Y5L3); experiment: Malachite green assay, human NTPDase2; type: biochemical; conditions: 2 μM compound; 100 µM ATP; COS-7 membrane preparation; read-out: % inhibition at 2 μM concentration, NTPDase2
T1 construct: expressed in transfected cells; host or cells: COS-7 cells (membrane preparation)
T1 sequence (Q9Y5L3 1-495): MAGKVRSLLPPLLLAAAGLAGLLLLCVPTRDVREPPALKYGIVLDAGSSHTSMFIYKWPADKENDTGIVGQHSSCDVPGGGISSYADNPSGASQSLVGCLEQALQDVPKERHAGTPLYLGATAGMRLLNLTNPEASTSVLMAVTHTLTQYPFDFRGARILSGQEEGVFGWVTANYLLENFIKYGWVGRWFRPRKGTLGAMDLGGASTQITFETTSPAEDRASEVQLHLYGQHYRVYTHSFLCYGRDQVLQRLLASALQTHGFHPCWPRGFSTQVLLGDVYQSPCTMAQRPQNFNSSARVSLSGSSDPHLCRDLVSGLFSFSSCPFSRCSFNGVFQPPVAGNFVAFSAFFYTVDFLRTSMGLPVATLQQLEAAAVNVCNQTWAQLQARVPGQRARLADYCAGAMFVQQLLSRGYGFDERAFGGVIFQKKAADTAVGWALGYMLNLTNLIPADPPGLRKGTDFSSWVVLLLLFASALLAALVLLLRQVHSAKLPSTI
Summary of the method: (§1)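 COS-7 membranes expressing each NTPDase were preincubated with compound for 5 min at 37 °C, pH 7.4 HEPES buffer with 2 mM CaCl2/1 mM MgCl2. ATP was 50 µM for NTPDase1 and 100 µM for -2, -3, -8; reaction ran 15 min at 37 °C. Released phosphate read by malachite green at 600 nm; screen at 2 µM, IC50 over 0.03–30 µM in 2% DMSO.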

human NTPDase3 = biological target: T2, human NTPDase3 (Homo sapiens, UniProt O75355); experiment: Malachite green assay, human NTPDase3; type: biochemical; conditions: 2 μM compound; 100 µM ATP; COS-7 membrane preparation; read-out: % inhibition at 2 μM concentration, NTPDase3
T2 construct: expressed in transfected cells; host or cells: COS-7 cells (membrane preparation)
T2 sequence (O75355 1-529): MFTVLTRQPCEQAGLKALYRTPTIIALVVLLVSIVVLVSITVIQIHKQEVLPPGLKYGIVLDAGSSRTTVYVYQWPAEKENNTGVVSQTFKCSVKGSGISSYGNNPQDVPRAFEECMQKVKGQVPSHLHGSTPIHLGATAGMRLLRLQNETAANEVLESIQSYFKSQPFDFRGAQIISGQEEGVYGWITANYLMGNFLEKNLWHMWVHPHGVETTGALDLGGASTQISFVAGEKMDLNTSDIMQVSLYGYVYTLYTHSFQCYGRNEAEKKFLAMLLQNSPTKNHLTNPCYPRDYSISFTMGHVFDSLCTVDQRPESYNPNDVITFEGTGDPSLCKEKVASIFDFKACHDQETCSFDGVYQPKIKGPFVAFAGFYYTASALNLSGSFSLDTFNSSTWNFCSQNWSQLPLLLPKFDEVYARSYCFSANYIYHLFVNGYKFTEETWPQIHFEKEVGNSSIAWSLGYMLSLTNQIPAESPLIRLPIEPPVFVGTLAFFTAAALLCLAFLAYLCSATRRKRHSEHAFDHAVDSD
Summary of the method: as §1

rat NTPDase2 = conditions: rat enzyme; ref Baqi et al., 2009b; cited from earlier work
rat NTPDase3 = conditions: rat enzyme; ref Baqi et al., 2009b; cited from earlier work

Nc1c(S(=O)(=O)O)cc(Nc2cccc3ccccc23)c2c1C(=O)c1ccccc1C2=O [Compound 15]
inhibition at 2 µM (human NTPDase2): 31% | inhibition at 2 µM (human NTPDase3): -4% | IC50 (rat NTPDase2): > 100 µM | IC50 (rat NTPDase3): 1.5 µM
